Data on six substances can be found in patent US20120010272A1, “RNA Interference Mediated Inhibition of Apoptosis Signal-Regulating Kinase 1 (ASK1) Gene Expression Using Short Interfering Nucleic Acid (siNA)” (Merck Sharp & Dohme Corp., priority 2009, published 2012).

In data set [1] the test system is ASK1 mRNA. As to the kind of experiment: ASK1 mRNA knock-down by siNA in mouse Hepa1-6 cells (RNAiMax transfection, Taqman RT-PCR). Format: cell-based. Conditions: 10 nM siNA, 24 hrs post-transfection, vs non-targeting control, GAPDH-normalized, mean ± S.D., two experiments. The procedure: Hepal-6 (murine; ATCC cat #CRL-1830): Cells were cultured at 37° C. in the presence of 5% CO2 and grown in Dulbecco's modified Eagle's medium (DMEM) with 4 mM L-glutamine adjusted to contain 1.5 g/L sodium bicarbonate and 4.5 g/L glucose and supplemented with 10% of fetal bovine serum, 100 μg/mL of streptomycin, and 100 U/mL penicillin.
(§1) Cells were plated in all wells of a tissue-culture treated, 96-well plate at a final count of 5000 cells/well (A549 cell line) and 3,500 cells/well (Hepal-6 cell line) in 100 μL of the appropriate culture media. The cells were cultured for 24 hours after plating at 37° C. in the presence of 5% CO2.
(§2) After 24 hours, complexes containing siNA and RNAiMax were created as follows: A solution of RNAiMax diluted 33-fold in OPTI-MEM was prepared. In parallel, solutions of the siNAs for testing were prepared to a final concentration of 120 nM in OPTI-MEM. After incubation of RNAiMax/OPTI-MEM solution at room temperature for 5 min, an equal volume of the siRNA solution and the RNAiMax solution were added together for each of the siNAs.
(§3) This solution was incubated at room temperature for 20 minutes. After incubation, 20 uL of the solution was added to each of the relevant wells. The final concentration of siNA in each well was 10 nM and the final volume of RNAiMax in each well was 0.3 ul.
(§4) The time of incubation with the RNAiMax-siNA complexes was 24 hours and there was no change in media between transfection and harvesting, unless otherwise indicated.
(§5) RNA was extracted from a 96-well plate using the TaqMan® Gene Expression Cells-to-CT™ Kit (Cat #4399002) with a modified protocol. Briefly, a 60 uL (1 plate) or 110 uL (2 plates) of the Lysis Solution with DNase I was dispensed into each well of the Lysis Buffer Plate (twin.tec full skirt plate). The lysis buffer and stop plates were stored at 4° C. until the cells were washed.
(§6) The plate was spun at 1100 rpm for 5 minutes. The culture medium was aspirated and discarded from the wells of the culture plate. The lysis was performed automatically using a BioMek FX instrument and method. After the Biomek method was completed, the lysis plate was incubated for 2 min. at room temperature. The lysis plate can be stored for 2 hours at 4° C., or at −20° C. or −80° C. for two months.
(§7) Each well of the reverse transcription plate required 10 uL of 2× reverse transcriptase Buffer, 1 uL of 20× reverse transcription enzyme and 2 uL of nuclease-free water. The reverse transcription master mix was prepared by mixing 2× reverse transcription buffer, 20× reverse transcription enzyme mix, and nuclease-free water. 13 uL of the reverse transcription master mix was dispensed into each well of the reverse transcription plate (semi-skirted). A separate reverse transcription plate was prepared for each cell plate. The plate was loaded onto a Biomek NX or Biomek FX Dual-96 and the Biomek method was run. The program is programmed to automatically added 7 uL of lysate from the cell lysis procedure described above into each well of the reverse transcription plate. The plate is sealed and spun on a centrifuge (1000 rpm for 30 seconds) to settle the contents to the bottom of the reverse transcription plate. The plate is placed in a thermocycler at 37° C. for 60 min, 95° C. for 5 min, and 4° C. until the plate is removed from the thermocycler. Upon removal, if not used immediately, the plate was frozen at −20° C.
(§8) A series of probes and primers were used to detect the various mRNA transcripts of the genes of ASK1, ASK2, and GAPDH in human cell lines and ASK1 and GAPDH in mouse cell lines. All Taqman probes and primers for the experiments were supplied as pre-validated sets by ABI (see Table 2).
(§9) The assays were performed on an ABI 7900 instrument, according to the manufacturer's instructions. A TaqMan Gene Expression Master Mix (provided in the Cells-to-CT™, Applied Biosystems, Cat #4399002) was used. […]
(In qPCR the cycle at which signal appears reflects the starting amount.)

The subject of data set [2] is ASK1 mRNA. As to the kind of experiment: ASK1 mRNA knock-down by siNA in human A549 cells (RNAiMax transfection, Taqman RT-PCR). Format: cell-based. Conditions: 10 nM siNA, 24 hrs post-transfection, vs non-targeting control, GAPDH-normalized, mean ± S.D., two experiments. The procedure:
A549 (human; ATCC cat #CCL-185): Cells were cultured at 37° C. in the presence of 5% CO2 and grown in Ham's F12K medium with 2 mM L-glutamine adjusted to contain 1.5 g/L sodium bicarbonate and supplemented with fetal bovine serum at a final concentration of 10%, 100 μg/mL of streptomycin, and 100 U/mL penicillin.
as §1, §2, §3, §4, §5, §6, §7, §8, §9

[invAb] = inverted abasic unit; m = 2'-O-methyl; r = 2'-OH (RNA); f = 2'-fluoro

Consider “25395-DC: siNA duplex, sense B cuGAuGAcAAGAAAGGuAu TTB, antisense AUAccuuucuuGucAucAGUU (SEQ ID NO: 71/72), human ASK1 target site 2139 (sense CUGAUGACAAGAAAGGUAUTT; antisense AUACCUUUCUUGUCAUCAGUU; chemistry not fully specified)”, for which the “% KD Mouse” value in data set [1] turned out to be 6 ± 15%. In addition, the “% KD Human” value in data set [2] came out at 32 ± 12%.

Consider “25396-DC: siNA duplex, sense B cAAGcAAAAAGAAAAAGAc TTB, antisense GUCuuuuucuuuuuGcuuGUU (SEQ ID NO: 73/74), human ASK1 target site 3183 (sense CAAGCAAAAAGAAAAAGACTT; antisense GUCUUUUUCUUUUUGCUUGUU; chemistry not fully specified)”, for which the “% KD Mouse” value in data set [1] came out at 75 ± 1%. In addition, in data set [2], the “% KD Human” value was determined as 90 ± 1%.

As for “25397-DC: siNA duplex, sense B AGccAGuAcuuccGGGAAu TTB, antisense AUUcccGGAAGuAcuGGcuUU (SEQ ID NO: 75/76), human ASK1 target site 1166 (sense AGCCAGUACUUCCGGGAAUTT; antisense AUUCCCGGAAGUACUGGCUUU; chemistry not fully specified)”, the “% KD Mouse” value in data set [1] came out at 78 ± 7%. Moreover, the “% KD Human” value in data set [2] came out at 60 ± 0%.

For the substance “25398-DC: siNA duplex, sense B GuGAcAGcAGcuucAuGAA TTB, antisense UUCAuGAAGcuGcuGucAcUU (SEQ ID NO: 77/78), human ASK1 target site 1038 (sense GUGACAGCAGCUUCAUGAATT; antisense UUCAUGAAGCUGCUGUCACUU; sense: DNA at AGT, 2'-fluoro at CU, [invAb] at 5' end, 3' end, backbone not given here; antisense: sugars from the 5' end rrrmfmmmmffmffmffmfmm, backbone not given here)”, in data set [1], the “% KD Mouse” value is reported as 51 ± 2%. Moreover, the “% KD Human” value in data set [2] was 38 ± 6%.

Consider “25400-DC: siNA duplex, sense B ccAcuGAccGAAAAAucAu TTB, antisense AUGAuuuuucGGucAGuGGUU (SEQ ID NO: 81/82), human ASK1 target site 3660 (sense CCACUGACCGAAAAAUCAUTT; antisense AUGAUUUUUCGGUCAGUGGUU; chemistry not fully specified)”, for which the “% KD Mouse” value in data set [1] amounted to 74 ± 1%. Also, in data set [2], the “% KD Human” value is 86 ± 4%.

Consider “25401-DC: siNA duplex, sense B uccuGGucGAGGccAcAAA TTB, antisense UUUGuGGccucGAccAGGAUU (SEQ ID NO: 83/84), human ASK1 target site 1995 (sense UCCUGGUCGAGGCCACAAATT; antisense UUUGUGGCCUCGACCAGGAUU; sense: DNA at AGT, 2'-fluoro at CU, [invAb] at 5' end, 3' end, backbone not given here; antisense: sugars from the 5' end rrrmfmmffffmmffmmmmmm, backbone not given here)”, for which, in data set [1], the “% KD Mouse” value was determined as 21 ± 0%. Besides, the “% KD Human” value in data set [2] turned out to be 10 ± 16%.
